{"source": "patent US20250339391A1", "about": "“METHODS FOR EFFECTIVE MANAGEMENT OF PAIN” (South Rampart Pharma, Inc., priority 2024, published 2025)", "key": {"[1]": {"assay": "Phase 1 single ascending dose (SAD) and food effect pharmacokinetics", "assay_type": "in vivo, human", "experimental": "A two-part randomized, double-blind, placebo-controlled Phase 1 trial was conducted to assess the safety, tolerability, PK and PD of SRP-001 ascending doses (Quotient Sciences, Miami, FL USA). The study was conducted in accordance with the International Council for Harmonisation of Technical Requirements for Pharmaceuticals for Human Use (ICH), Guideline for GCP: Consolidated Guidance (E6), and applicable regulatory requirements(s) including clinical research guidelines established by the Basic Principles defined in the U.S. 21 CFR Parts 50, 56, and 312 and the principles enunciated in the Declaration of Helsinki (revised version Fortaleza 2013). The clinical protocol and informed consent form were reviewed and approved by an Institutional Review Board (IRB; Advarra IRB, 6100 Merriweather Drive, Suite 600, Columbia, MD 21044; Quotient Protocol No. SRP-101 and Quotient Sciences Study No. QSC205130; Quotient Sciences Miami, 3898 NW 7th Street, Miami, FL 33126.). The study comprises a SAD (Part 1) assessment that includes a food effect assessment that contributes data to inform a subsequent MAD (Part 2) dose-ranging study. Safety measurements were collected throughout the study for all subjects. Blood samples were collected to determine the PK parameters of SRP-001. ClinicalTrials.gov identifier: NCT05484414\nFasted and Fed Dosing: NHVs were dosed in the fasted state. The calorie/fat content of meals was not required to be controlled. Subjects were provided with a standardized menu. Subjects were provided with a light snack and then fasted from all food and drink (except water) for a minimum of 10 h on the day prior to dosing until approximately 4 h post-dose, at which time lunch was provided. An evening meal was provided at approximately 10 h post-dose/post-morning dose and an evening snack at approximately 14 h post-morning dose. Food effect was studied in the cohort receiving 900 mg SRP-001 in the fed state. A standard high-fat breakfast was given 30 min before dosing. On Day −1, these NHVs were provided with a light snack and fasted from all food and drink (except water) until the following morning, when they were provided with a standard high-fat breakfast. The breakfast had to be consumed over a maximum period of 25 min, with dosing occurring 30 min after the start of breakfast. Subjects were encouraged to eat their meal evenly over the 25 min period. It was acknowledged that some subjects took less time to eat, but dosing still occurred 30 min after the start of breakfast. Subjects had to consume at least 90% to be eligible for dosing. The start and stop time and percentage of the breakfast consumed were recorded in the source. Acceptable deviations for the pre-dose meal from the nominal time point were: 1) Pre-dose meal was provided within +5 min of the nominal time point, 2) Lunch was provided at approximately 4 h post-dose, 3) an evening meal at approximately 10 h post-dose, and 4) an evening snack at approximately 14 h post-dose. On subsequent days, meals were provided at appropriate times.\nSRP-001 administration and PK/PD determination: Following a single administration of 300-2,000 mg SRP-001 oral suspension in the fasted state (and in cohort 4, 900 mg in the fed state), plasma concentrations of SRP-001 were observed from the first sampling timepoint of 1 h post-dose for all subjects."}, "[2]": {"molecular_target": "T1, hERG current (Homo sapiens, UniProt Q12809)", "T1 construct": "expressed in transfected cells; host or cells: human embryonic kidney cells", "T1 sequence (Q12809 whole entry)": "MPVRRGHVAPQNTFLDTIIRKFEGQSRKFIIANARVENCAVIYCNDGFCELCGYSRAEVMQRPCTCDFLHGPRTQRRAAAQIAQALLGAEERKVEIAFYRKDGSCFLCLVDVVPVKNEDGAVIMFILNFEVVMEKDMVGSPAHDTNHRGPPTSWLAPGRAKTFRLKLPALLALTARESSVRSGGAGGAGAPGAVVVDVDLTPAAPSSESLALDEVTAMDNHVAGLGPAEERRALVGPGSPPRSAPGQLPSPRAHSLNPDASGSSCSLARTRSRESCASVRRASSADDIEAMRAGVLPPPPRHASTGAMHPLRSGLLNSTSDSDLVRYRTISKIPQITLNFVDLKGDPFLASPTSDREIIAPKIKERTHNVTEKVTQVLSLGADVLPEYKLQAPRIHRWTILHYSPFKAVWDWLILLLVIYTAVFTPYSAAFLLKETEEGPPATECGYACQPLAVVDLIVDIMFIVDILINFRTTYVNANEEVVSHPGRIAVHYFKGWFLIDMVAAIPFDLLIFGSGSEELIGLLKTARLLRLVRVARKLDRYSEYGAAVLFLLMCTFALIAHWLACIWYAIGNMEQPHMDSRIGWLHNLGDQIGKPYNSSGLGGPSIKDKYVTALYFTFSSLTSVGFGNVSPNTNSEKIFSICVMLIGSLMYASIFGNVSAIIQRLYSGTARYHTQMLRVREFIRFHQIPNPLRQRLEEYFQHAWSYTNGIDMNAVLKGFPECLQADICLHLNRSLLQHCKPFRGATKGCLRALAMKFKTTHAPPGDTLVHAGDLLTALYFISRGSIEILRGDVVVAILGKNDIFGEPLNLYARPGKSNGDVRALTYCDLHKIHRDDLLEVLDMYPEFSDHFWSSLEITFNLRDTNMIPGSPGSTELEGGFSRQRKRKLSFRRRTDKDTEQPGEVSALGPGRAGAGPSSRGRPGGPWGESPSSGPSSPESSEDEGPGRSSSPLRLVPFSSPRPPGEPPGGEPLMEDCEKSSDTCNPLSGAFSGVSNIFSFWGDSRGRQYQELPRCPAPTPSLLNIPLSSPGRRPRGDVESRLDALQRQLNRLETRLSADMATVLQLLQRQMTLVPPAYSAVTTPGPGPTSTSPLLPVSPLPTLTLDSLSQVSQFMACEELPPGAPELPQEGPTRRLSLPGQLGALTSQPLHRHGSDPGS", "assay": "In vitro hERG cardiotoxicity assay in human embryonic kidney cells", "assay_type": "cell-based", "experimental": "The effects of SRP-001 on hERG current amplitude at physiologic temperatures were evaluated over a nominal concentration range of 0.1 μM to 100M. A vehicle group (10% DMSO) was included in the study for comparison, and dofetilide (10 nM) was used as a reference substance. The vehicle and positive controls indicated appropriate sensitivity of the test systems. […] Next, the potential acute effects of oral SRP-001 on cardiovascular function in conscious telemetered beagle dogs was done using a Latin Square design; 4 male naïve beagle dogs each received vehicle (10% DMSO: 10% labrasol: 80% PEG400) and three doses (30, 90, and 150 mg/kg) of SRP-001 nanosuspension by oral gavage. […] A single dose was administered on the day of dosing, and a washout period of seven days was allowed between doses. One-min means of hemodynamic parameters, as well as ECG parameters and body temperature, were measured for a period of at least 24 h. One-min tracings of the ECGs were obtained at 15 min prior to dosing and at 30 min, 1, 2, 4, 8, 12, and 24 h post-dose. Qualitative evaluation of the ECGs was done by a board-certified veterinary cardiologist."}, "[3]": {"tested_on": "male Beagle dogs", "details": "dog, in vivo", "experimental": "6) A Two-day Oral Dose Toxicity and Pharmacokinetic Study of SRP-001 in Beagle Dogs Non-GLP) SRP-001 was supplied by Olon Ricerca Bioscience as an off-white powder and then prepared as dosing suspensions for oral administration via gavage (Calvert Labs/Altasciences, Scott Township, PA USA). Six experimentally non-naïve male Beagle dogs (3/dose), at least 7 months old and weighing 7.2 to 10.2 kg prior to treatment initiation, were administered 100 or 900 mg/kg/d SRP-001. Animals were dosed three times daily (3-5 h between doses) for 2 d. Mortality/morbidity was performed twice daily. On the day of dosing, animals were observed prior to each dose administration and approximately 1-3 h after each dose. Animals were also observed once on day 3. Body weights were recorded for all animals prior to the first dose administration on days 1 and 3, and food consumption was recorded daily. Blood for bioanalytical evaluation was collected at selected timepoints on day 1. Following the completion of the study, surviving animals were not euthanized and were returned to the Calvert colony."}}, "note": "“And” between values parts separate entries of the source, which are not always exact repeats. Equal entries are not always repeated. “Also recorded” adds a separate entry of the source.", "data": [{"smiles": "CCN(CC)C(=O)c1ccccc1S(=O)(=O)NCC(=O)Nc1ccc(O)cc1", "note": "[SRP-001, N,N-diethyl-2-[[2-(4-hydroxyanilino)-2-oxo-ethyl]sulfamoyl]benzamide]", "values": [{"measurement": "AUC(0-48), geometric mean", "setting": "[1]; 300 mg fasted", "result": 1630, "unit": "ng·h/mL"}, {"measurement": "AUC(0-inf), geometric mean", "setting": "[1]; 300 mg fasted", "result": 1630, "unit": "ng·h/mL"}, {"measurement": "T1/2, geometric mean", "setting": "[1]; 300 mg fasted", "result": 2.38, "unit": "h"}, {"measurement": "dose dependence of geometric mean Cmax and AUC(0-∞)", "setting": "[1]; 300 mg to 2,000 mg", "result": "dose-proportional or super-proportional increase"}, {"measurement": "AUC(0-24), geometric mean", "setting": "[1]; 600 mg fasted", "result": 5660, "unit": "ng·h/mL"}, {"measurement": "AUC(0-inf), geometric mean", "setting": "[1]; 600 mg fasted", "result": 5840, "unit": "ng·h/mL"}, {"measurement": "Cmax, geometric mean", "setting": "[1]; 600 mg fasted", "result": 1740, "unit": "ng/mL"}, {"measurement": "T1/2, geometric mean", "setting": "[1]; 600 mg fasted", "result": "5.0 h and 5.04 h"}, {"measurement": "AUC(0-24), geometric mean", "setting": "[1]; 900 mg fasted", "result": 6870, "unit": "ng·h/mL"}, {"measurement": "AUC(0-inf), geometric mean", "setting": "[1]; 900 mg fasted", "result": 6970, "unit": "ng·h/mL"}, {"measurement": "Cmax, geometric mean", "setting": "[1]; 900 mg fasted", "result": 2700, "unit": "ng/mL"}, {"measurement": "T1/2, geometric mean", "setting": "[1]; 900 mg fasted", "result": 3.26, "unit": "h"}, {"measurement": "AUC(0-24), geometric mean", "setting": "[1]; 900 mg fed", "result": 6250, "unit": "ng·h/mL"}, {"measurement": "AUC(0-inf), geometric mean", "setting": "[1]; 900 mg fed", "result": 5910, "unit": "ng·h/mL"}, {"measurement": "Cmax, geometric mean", "setting": "[1]; 900 mg fed", "result": 1200, "unit": "ng/mL"}, {"measurement": "T1/2, geometric mean", "setting": "[1]; 900 mg fed", "result": 3.79, "unit": "h"}, {"measurement": "relative bioavailability based on geometric mean AUC(0-24)", "setting": "[1]; 900 mg fed vs fasted", "result": 99.2, "unit": "%"}, {"measurement": "relative bioavailability based on geometric mean AUC(0-inf)", "setting": "[1]; 900 mg fed vs fasted", "result": 101, "unit": "%"}, {"measurement": "relative bioavailability based on geometric mean AUC(0-last)", "setting": "[1]; 900 mg fed vs fasted", "result": 98.4, "unit": "%"}, {"measurement": "relative bioavailability based on geometric mean Cmax", "setting": "[1]; 900 mg fed vs fasted", "result": 48.4, "unit": "%"}, {"measurement": "AUC(0-24), geometric mean", "setting": "[1]; 2000 mg fasted", "result": 18900, "unit": "ng·h/mL"}, {"measurement": "AUC(0-inf), geometric mean", "setting": "[1]; 2000 mg fasted", "result": 19600, "unit": "ng·h/mL"}, {"measurement": "Cmax, geometric mean", "setting": "[1]; 2000 mg fasted", "result": 4590, "unit": "ng/mL"}, {"measurement": "T1/2, geometric mean", "setting": "[1]; 2000 mg fasted", "result": 5.96, "unit": "h"}, {"measurement": "geometric mean AUC(0-24) as share of the exposure limits defined in the protocol", "setting": "[1]; 2000 mg fasted", "result": 31, "unit": "%"}, {"measurement": "geometric mean Cmax as share of the exposure limits defined in the protocol", "setting": "[1]; 2000 mg fasted", "result": 34, "unit": "%"}, {"measurement": "increase of geometric mean AUC(0-24)", "setting": "[1]; dose from 300 to 600 mg", "result": 3.5, "unit": "fold"}, {"measurement": "increase of geometric mean Cmax", "setting": "[1]; dose from 300 to 600 mg", "result": 2.6, "unit": "fold"}, {"measurement": "increase of geometric mean AUC(0-24)", "setting": "[1]; dose from 600 to 900 mg", "result": 1.2, "unit": "fold"}, {"measurement": "increase of geometric mean Cmax", "setting": "[1]; dose from 600 to 900 mg", "result": 1.6, "unit": "fold"}, {"measurement": "increase of geometric mean AUC(0-24)", "setting": "[1]; dose from 900 to 2000 mg", "result": 2.8, "unit": "fold"}, {"measurement": "increase of geometric mean Cmax", "setting": "[1]; dose from 900 to 2000 mg", "result": 1.7, "unit": "fold"}, {"measurement": "hERG signal / blocker class", "setting": "[2]; 0.1 μM to 100 μM", "result": "weak blocker of hERG current; also recorded: absent relevant signal"}, {"measurement": "block of hERG current", "setting": "[2]; 100 μM, highest concentration tested, physiologic temperatures", "result": "21.4±3.9", "unit": "%"}, {"measurement": "emesis", "setting": "[3]", "result": "Nearly all animals had emesis"}, {"measurement": "amplification in peak plasma concentration", "setting": "[3]; male, Beagle", "result": "3-4 fold"}, {"measurement": "tolerated dose", "setting": "[3]; male, Beagle, 2 d", "result": 900, "unit": "mg/kg/day"}]}]}
